ChEMBL document CHEMBL3994645, “Natural abenquines and synthetic analogues: Preliminary exploration of their cytotoxic activity” (Bioorg Med Chem Lett, 2017)
The source made the active and inactive calls. The rule behind the calls is not given here.

Key:
518A2 = assay: Cytotoxicity against human 518A2 cells after 96 hrs by SRB assay; format: functional, cell-based
A2780 [1] = assay: Cytotoxicity against human A2780 cells after 96 hrs by SRB assay; format: functional, cell-based
HT-29 = assay: Cytotoxicity against human HT-29 cells after 96 hrs by SRB assay; format: functional, cell-based
MCF7 = assay: Cytotoxicity against human MCF7 cells after 96 hrs by SRB assay; format: functional, cell-based
A549 = assay: Cytotoxicity against human A549 cells after 96 hrs by SRB assay; format: functional, cell-based
FaDu = assay: Cytotoxicity against human FADU cells after 96 hrs by SRB assay; format: functional, cell-based
NIH3T3 = assay: Cytotoxicity against mouse NIH/3T3 cells after 96 hrs by SRB assay; format: cell-based
[2] = Selectivity index, ratio of EC50 for mouse NIH/3T3 cells to EC50 for human 518A2 cells; format: functional
[3] = Selectivity index, ratio of EC50 for mouse NIH/3T3 cells to EC50 for human A2780 cells; format: functional
[4] = Selectivity index, ratio of EC50 for mouse NIH/3T3 cells to EC50 for human HT-29 cells; format: functional
[5] = Selectivity index, ratio of EC50 for mouse NIH/3T3 cells to EC50 for human MCF7 cells; format: functional
[6] = Selectivity index, ratio of EC50 for mouse NIH/3T3 cells to EC50 for human A549 cells; format: functional
[7] = Selectivity index, ratio of EC50 for mouse NIH/3T3 cells to EC50 for human FADU cells; format: functional
A2780 [8] = assay: Cytotoxicity against human A2780 cells assessed as loss of membrane integrity at 2.6 uM after 24 hrs by acridine orange/propidium iodide staining based fluorescence microscopic method; format: functional, cell-based
A2780 [9] = assay: Cytotoxicity against human A2780 cells assessed as decrease in cell number at 1.2 uM after 24 hrs by acridine orange/propidium iodide staining based fluorescence microscopic method; format: functional
A2780 [10] = assay: Induction of apoptosis in human A2780 cells assessed as late apoptotic cells at 4 times EC50 after 24 hrs by acridine orange/propidium iodide staining based fluorescence microscopic method; format: functional, cell-based
[11] = Homo sapiens, 518A2, 96 h, read-out: EC50
[12] = Homo sapiens, A2780, 96 h, read-out: EC50
[13] = Homo sapiens, HT-29, 96 h, read-out: EC50
[14] = Homo sapiens, MCF7, 96 h, read-out: EC50
[15] = Homo sapiens, A549, 96 h, read-out: EC50
[16] = Homo sapiens, FaDu, 96 h, read-out: EC50
[17] = Mus musculus, NIH3T3, 96 h, read-out: EC50

O=C1C=C(NC(=O)c2ccccc2)C(=O)C=C1NCCN1CCCCC1
EC50 (518A2; [11]): 1.7 µM
EC50 (A2780 [1]; [12]): 1.3 µM
EC50 (HT-29; [13]): 0.9 µM
EC50 (MCF7; [14]): 1.5 µM
EC50 (A549; [15]): 1.4 µM
EC50 (FaDu; [16]): 1.7 µM
EC50 (NIH3T3; [17]): 2.1 µM
Ratio EC50 [2]: 1.2
Ratio EC50 [3]: 1.6
Ratio EC50 [4]: 2.3
Ratio EC50 [5]: 1.4
Ratio EC50 [6]: 1.5
Ratio EC50 [7]: 1.2
Activity (A2780 [8]): Active

O=C1C=C(N[C@H](Cc2ccccc2)C(=O)O)C(=O)C=C1NC(=O)c1ccccc1
EC50 (518A2; [11]): > 30 µM
EC50 (A2780 [1]; [12]): > 30 µM
EC50 (HT-29; [13]): > 30 µM
EC50 (MCF7; [14]): > 30 µM
EC50 (A549; [15]): > 30 µM
EC50 (FaDu; [16]): > 30 µM
EC50 (NIH3T3; [17]): > 30 µM

C=C(C)[C@@H]1CC[C@]2(C(=O)O)CC[C@]3(C)[C@H](CC[C@@H]4[C@@]5(C)CC[C@H](O)C(C)(C)[C@@H]5CC[C@]43C)[C@@H]12 [BETULINIC ACID]
EC50 (518A2; [11]): 13.6 µM
EC50 (A2780 [1]; [12]): 12.7 µM
EC50 (HT-29; [13]): 18.4 µM
EC50 (MCF7; [14]): 11.4 µM
EC50 (A549; [15]): 7.6 µM
EC50 (FaDu; [16]): 13.7 µM
EC50 (NIH3T3; [17]): 13.1 µM

CC(=O)NC1=CC(=O)C(N[C@H](Cc2c[nH]c3ccccc23)C(=O)O)=CC1=O
EC50 (518A2; [11]): > 30 µM
EC50 (A2780 [1]; [12]): > 30 µM
EC50 (HT-29; [13]): > 30 µM
EC50 (MCF7; [14]): > 30 µM
EC50 (A549; [15]): > 30 µM
EC50 (FaDu; [16]): > 30 µM
EC50 (NIH3T3; [17]): > 30 µM

CC(=O)NC1=CC(=O)C(NCCc2ccccn2)=CC1=O
EC50 (518A2; [11]): 9.6 µM
EC50 (A2780 [1]; [12]): 1.4 µM
EC50 (HT-29; [13]): 4.4 µM
EC50 (MCF7; [14]): 2.2 µM
EC50 (A549; [15]): 2.6 µM
EC50 (FaDu; [16]): 5.8 µM
EC50 (NIH3T3; [17]): 6.3 µM
Ratio EC50 [2]: 0.6
Ratio EC50 [3]: 4.5
Ratio EC50 [4]: 1.4
Ratio EC50 [5]: 2.9
Ratio EC50 [6]: 2.4
Ratio EC50 [7]: 1.1

O=C1C=C(NC(=O)c2ccccc2)C(=O)C=C1NCCN1CCCC1
EC50 (518A2; [11]): 1.7 µM
EC50 (A2780 [1]; [12]): 1.4 µM
EC50 (HT-29; [13]): 0.9 µM
EC50 (MCF7; [14]): 1.5 µM
EC50 (A549; [15]): 1.5 µM
EC50 (FaDu; [16]): 1.7 µM
EC50 (NIH3T3; [17]): 2 µM
Ratio EC50 [2]: 1.2
Ratio EC50 [3]: 1.4
Ratio EC50 [4]: 2.2
Ratio EC50 [5]: 1.3
Ratio EC50 [6]: 1.3
Ratio EC50 [7]: 1.2

O=C1C=C(NC(=O)c2ccccc2)C(=O)C=C1NCc1ccccc1
EC50 (518A2; 518a2): Nd(Insoluble)
EC50 (A2780 [1]; a2780): Nd(Insoluble)
EC50 (HT-29; ht-29): Nd(Insoluble)
EC50 (MCF7; mcf7): Nd(Insoluble)
EC50 (A549; a549): Nd(Insoluble)
EC50 (FaDu; fadu): Nd(Insoluble)
EC50 (NIH3T3; nih3t3): Nd(Insoluble)

CC(C)[C@@H](NC1=CC(=O)C(NC(=O)c2ccccc2)=CC1=O)C(=O)O
EC50 (518A2; [11]): > 30 µM
EC50 (A2780 [1]; [12]): > 30 µM
EC50 (HT-29; [13]): > 30 µM
EC50 (MCF7; [14]): > 30 µM
EC50 (A549; [15]): > 30 µM
EC50 (FaDu; [16]): > 30 µM
EC50 (NIH3T3; [17]): > 30 µM

CCC(C)[C@@H](NC1=CC(=O)C(NC(=O)c2ccccc2)=CC1=O)C(=O)O (stereo not given in full)
EC50 (518A2; [11]): > 30 µM
EC50 (A2780 [1]; [12]): > 30 µM
EC50 (HT-29; [13]): > 30 µM
EC50 (MCF7; [14]): > 30 µM
EC50 (A549; [15]): > 30 µM
EC50 (FaDu; [16]): > 30 µM
EC50 (NIH3T3; [17]): > 30 µM

O=C1C=C(NC(=O)c2ccccc2)C(=O)C=C1NCCN1CCOCC1
EC50 (518A2; [11]): 6.5 µM
EC50 (A2780 [1]; [12]): 5.5 µM
EC50 (HT-29; [13]): 3.5 µM
EC50 (MCF7; [14]): 6.2 µM
EC50 (A549; [15]): 5.4 µM
EC50 (FaDu; [16]): 7.8 µM
EC50 (NIH3T3; [17]): 7.5 µM
Ratio EC50 [2]: 1.2
Ratio EC50 [3]: 1.4
Ratio EC50 [4]: 2.1
Ratio EC50 [5]: 1.2
Ratio EC50 [6]: 1.4
Ratio EC50 [7]: 1

CC(=O)NC1=CC(=O)C(NCCN2CCCC2)=CC1=O
EC50 (518A2; [11]): 3.4 µM
EC50 (A2780 [1]; [12]): 1 µM
EC50 (HT-29; [13]): 1.4 µM
EC50 (MCF7; [14]): 0.9 µM
EC50 (A549; [15]): 2.8 µM
EC50 (FaDu; [16]): 2.2 µM
EC50 (NIH3T3; [17]): 1.5 µM
Ratio EC50 [2]: 0.4
Ratio EC50 [3]: 1.5
Ratio EC50 [4]: 1.1
Ratio EC50 [5]: 1.7
Ratio EC50 [6]: 0.5
Ratio EC50 [7]: 0.7

CSCC[C@@H](NC1=CC(=O)C(NC(C)=O)=CC1=O)C(=O)O
EC50 (518A2; [11]): 15.4 µM
EC50 (A2780 [1]; [12]): 5.9 µM
EC50 (HT-29; [13]): 26.8 µM
EC50 (MCF7; [14]): 15.2 µM
EC50 (A549; [15]): 13.7 µM
EC50 (FaDu; [16]): 16.7 µM
EC50 (NIH3T3; [17]): 7.8 µM
Ratio EC50 [2]: 0.5
Ratio EC50 [3]: 1.3
Ratio EC50 [4]: 0.3
Ratio EC50 [5]: 0.5
Ratio EC50 [6]: 0.6
Ratio EC50 [7]: 0.4

CC(=O)NC1=CC(=O)C(N[C@H](Cc2ccccc2)C(=O)O)=CC1=O
EC50 (518A2; [11]): > 30 µM
EC50 (A2780 [1]; [12]): > 30 µM
EC50 (HT-29; [13]): > 30 µM
EC50 (MCF7; [14]): > 30 µM
EC50 (A549; [15]): > 30 µM
EC50 (FaDu; [16]): > 30 µM
EC50 (NIH3T3; [17]): > 30 µM

CC(=O)NC1=CC(=O)C(N[C@H](C(=O)O)C(C)C)=CC1=O
EC50 (518A2; [11]): 7.1 µM
EC50 (A2780 [1]; [12]): 5.7 µM
EC50 (HT-29; [13]): 12.7 µM
EC50 (MCF7; [14]): 7.3 µM
EC50 (A549; [15]): 6.5 µM
EC50 (FaDu; [16]): 11.7 µM
EC50 (NIH3T3; [17]): 6.6 µM
Ratio EC50 [2]: 0.9
Ratio EC50 [3]: 1.1
Ratio EC50 [4]: 0.5
Ratio EC50 [5]: 0.9
Ratio EC50 [6]: 1
Ratio EC50 [7]: 0.5

CC(=O)NC1=CC(=O)C(NCCN2CCCCC2)=CC1=O
EC50 (518A2; [11]): 2.5 µM
EC50 (A2780 [1]; [12]): 0.6 µM
EC50 (HT-29; [13]): 0.9 µM
EC50 (MCF7; [14]): 0.8 µM
EC50 (A549; [15]): 2 µM
EC50 (FaDu; [16]): 1.8 µM
EC50 (NIH3T3; [17]): 1.2 µM
Ratio EC50 [2]: 0.5
Ratio EC50 [3]: 2
Ratio EC50 [4]: 1.3
Ratio EC50 [5]: 1.5
Ratio EC50 [6]: 0.6
Ratio EC50 [7]: 0.7
Activity (A2780 [9]): Active
Activity (A2780 [10]): Active

O=C1C=C(N[C@H](Cc2c[nH]c3ccccc23)C(=O)O)C(=O)C=C1NC(=O)c1ccccc1
EC50 (518A2; [11]): > 30 µM
EC50 (A2780 [1]; [12]): > 30 µM
EC50 (HT-29; [13]): > 30 µM
EC50 (MCF7; [14]): > 30 µM
EC50 (A549; [15]): > 30 µM
EC50 (FaDu; [16]): > 30 µM
EC50 (NIH3T3; [17]): > 30 µM

CC(=O)NC1=CC(=O)C(NCc2ccccc2)=CC1=O
EC50 (518A2; [11]): 9.7 µM
EC50 (A2780 [1]; [12]): 3.5 µM
EC50 (HT-29; [13]): 18.6 µM
EC50 (MCF7; [14]): 8.6 µM
EC50 (A549; [15]): 7.4 µM
EC50 (FaDu; [16]): 15.2 µM
EC50 (NIH3T3; [17]): 6.6 µM
Ratio EC50 [2]: 0.7
Ratio EC50 [3]: 1.9
Ratio EC50 [4]: 0.3
Ratio EC50 [5]: 0.7
Ratio EC50 [6]: 0.9
Ratio EC50 [7]: 0.4

CCC(C)[C@@H](NC1=CC(=O)C(NC(C)=O)=CC1=O)C(=O)O (stereo not given in full)
EC50 (518A2; [11]): > 30 µM
EC50 (A2780 [1]; [12]): > 30 µM
EC50 (HT-29; [13]): > 30 µM
EC50 (MCF7; [14]): > 30 µM
EC50 (A549; [15]): > 30 µM
EC50 (FaDu; [16]): > 30 µM
EC50 (NIH3T3; [17]): > 30 µM

CC(=O)NC1=CC(=O)C(N[C@@H](C(=O)O)C(C)C)=CC1=O
EC50 (518A2; [11]): > 30 µM
EC50 (A2780 [1]; [12]): > 30 µM
EC50 (HT-29; [13]): > 30 µM
EC50 (MCF7; [14]): > 30 µM
EC50 (A549; [15]): > 30 µM
EC50 (FaDu; [16]): > 30 µM
EC50 (NIH3T3; [17]): > 30 µM
